Patent US11939351B2, “Amorphous mixture comprising a neutral mono- or oligosaccharide and an acidic non-carbohydrate component” (GLYCOM A/S, priority 2017, dated 2024)
Where two headings read alike, the source gives them in different places.

What was measured:
[1] = Forced storage stability of 2′-FL and DFL mixture samples at 60° C. and 80° C., analysed by HPAEC (Example 2); format: physicochemical
Method: One gram of each sample, separately, was put into a 4 ml glass vial and closed with screw lid containing teflon […]. The 8-week storage sample was put into a 60° C. oven, followed by the 4-week and the 2-week samples 4 and 6 weeks later, respectively), so the incubation of all samples ended in the same time. Similar pattern of experimental design was followed with the samples to be measured at 80° C. (4-week, 2-week and 1-week samples). The samples were kept in a freezer until they were put into the oven at a given time. Standards were kept in a freezer until analysis. The stability samples and the standards were analysed by HPAEC.

[2] = format: physicochemical
From the text: This means that an amorphous 2′-FL according to the present invention, the pH of the 5 w/w % aqueous solution of which is around 3.5-4.5, has a slightly shorter shelf-life than that for an amorphous 2′-FL having a pH of 4.5-5.8. […] In this regard it can be concluded that a fucosylated neutral HMO other than 2′-FL is hydrolytically as stable as a non-fucosylated neutral HMO.

[3] = in the acidic samples (pH = 4.5)
[4] = in the neutral sample (pH = 7.0)

preferred pH range in which no substantial hydrolysis and rearrangement occur ([1]; estimated from the Example 2 data)	hydrolysis (into fucose and lactose) [1, 3]	hydrolysis (into fucose and lactose) [1, 4]	hydrolysis to fucose and lactose ([2]; at a pH around 4.0-4.5)	hydrolysis to fucose and lactose ([2]; at around a pH of 3.5)	hydrolytic stability [2]	SMILES
5.2-5.8	slight hydrolysis	did not occur	still detectable	low degree of hydrolysis	–	C[C@@H]1O[C@@H](O[C@H]2[C@H](O[C@H]3[C@H](O)[C@@H](O)C(O)O[C@@H]3CO)O[C@H](CO)[C@H](O)[C@@H]2O)[C@@H](O)[C@H](O)[C@@H]1O (some centres unmarked) [2′-FL, 2′-fucosyllactose]
–	did not undergo hydrolysis	did not undergo hydrolysis	–	–	hydrolytically stabile	C[C@@H]1O[C@@H](O[C@H]2[C@H](O[C@H]3[C@H](O[C@@H]4O[C@@H](C)[C@@H](O)[C@@H](O)[C@@H]4O)[C@@H](O)C(O)O[C@@H]3CO)O[C@H](CO)[C@H](O)[C@@H]2O)[C@@H](O)[C@H](O)[C@@H]1O (some centres unmarked) [DFL, difucosyllactose]
